For assay [1], the system named is HT-1080. The experiment in a line: cytotoxicity in HT1080 fibrosarcoma cells, cell-based, fluorescence readout (AID 620). It is filed as functional. The note with it: Homo sapiens.
Assay [2] deals with Luciferin 4-monooxygenase (Photinus pyralis, UniProt P08659). Put plainly: Counter Screen for Luciferase-based Assay Positives. [Related pubchem assays: 620, 618, 411 ]. Background: The purpose of a counterscreen is to sort out artefacts and off-target activity.
A short description of assay [3]: inhibitors of firefly luciferase expression or activity, dose response, H4 neuroglioma cells, luminescence (AID 1990). The format is functional, cell-based.
In assay [4] the target is T1, Heat shock factor protein 1 (Mus musculus, UniProt P38532).
T1 sequence (P38532 whole entry): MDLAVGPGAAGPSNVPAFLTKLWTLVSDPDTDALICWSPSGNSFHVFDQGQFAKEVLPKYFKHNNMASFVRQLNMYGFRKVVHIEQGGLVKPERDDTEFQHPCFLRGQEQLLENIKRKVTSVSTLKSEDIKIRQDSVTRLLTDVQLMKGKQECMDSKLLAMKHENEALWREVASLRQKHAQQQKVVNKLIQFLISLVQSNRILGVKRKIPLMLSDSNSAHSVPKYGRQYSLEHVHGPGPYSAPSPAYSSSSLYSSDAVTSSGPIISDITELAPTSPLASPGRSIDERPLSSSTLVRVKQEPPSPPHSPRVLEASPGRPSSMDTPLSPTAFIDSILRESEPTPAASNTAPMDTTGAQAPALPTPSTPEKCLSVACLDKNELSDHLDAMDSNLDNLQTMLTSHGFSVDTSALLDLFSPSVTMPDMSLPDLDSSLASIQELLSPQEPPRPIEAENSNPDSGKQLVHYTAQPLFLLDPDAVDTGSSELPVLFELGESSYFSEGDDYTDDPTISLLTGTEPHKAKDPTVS
The experiment in a line: HSF1 potentiators in luciferase reporter cells, confirmation, cell-based, NIH3T3, luminescence, dose retest (AID 435004).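 Further: stress induced by proteasome inhibitor MG132 added 30 min after compound; luciferase reporter driven by HSF1 response element in NIH3T3 cells; actives raise luminescence as potentiators of the MG132 stress response.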 The format is functional. Background: A reporter such as luciferase makes a cellular process visible.

The nature of assay [5]: inhibitors of SNCA 5'UTR-driven reporter translation, confirmation, H4 neuroglioma cells, luminescence (AID 1988). The format is functional, cell-based.
A short description of assay [6]: Luminescence Cell-Based Dose Response HTS to Identify Inhibitors of 5'UTR Stem-Loop Driven Prion Protein mRNA Translation in H4 Neuroglioblastoma Cells. [Related pubchem assays: 1827 (Project Summary), 1813 (Primary HTS)]. It is filed as functional.
Assay [7] deals with HEK293. The experiment in a line: inhibitors of LMP1-driven NF-kB reporter, dose response, cell-based, HEK293, luciferase, cherry-pick (AID 588343). The format is functional. The note with it: Homo sapiens.
In assay [8] the target is T2, Histone-lysine N-methyltransferase NSD2 (Homo sapiens, UniProt O96028).
T2 sequence (O96028 whole entry): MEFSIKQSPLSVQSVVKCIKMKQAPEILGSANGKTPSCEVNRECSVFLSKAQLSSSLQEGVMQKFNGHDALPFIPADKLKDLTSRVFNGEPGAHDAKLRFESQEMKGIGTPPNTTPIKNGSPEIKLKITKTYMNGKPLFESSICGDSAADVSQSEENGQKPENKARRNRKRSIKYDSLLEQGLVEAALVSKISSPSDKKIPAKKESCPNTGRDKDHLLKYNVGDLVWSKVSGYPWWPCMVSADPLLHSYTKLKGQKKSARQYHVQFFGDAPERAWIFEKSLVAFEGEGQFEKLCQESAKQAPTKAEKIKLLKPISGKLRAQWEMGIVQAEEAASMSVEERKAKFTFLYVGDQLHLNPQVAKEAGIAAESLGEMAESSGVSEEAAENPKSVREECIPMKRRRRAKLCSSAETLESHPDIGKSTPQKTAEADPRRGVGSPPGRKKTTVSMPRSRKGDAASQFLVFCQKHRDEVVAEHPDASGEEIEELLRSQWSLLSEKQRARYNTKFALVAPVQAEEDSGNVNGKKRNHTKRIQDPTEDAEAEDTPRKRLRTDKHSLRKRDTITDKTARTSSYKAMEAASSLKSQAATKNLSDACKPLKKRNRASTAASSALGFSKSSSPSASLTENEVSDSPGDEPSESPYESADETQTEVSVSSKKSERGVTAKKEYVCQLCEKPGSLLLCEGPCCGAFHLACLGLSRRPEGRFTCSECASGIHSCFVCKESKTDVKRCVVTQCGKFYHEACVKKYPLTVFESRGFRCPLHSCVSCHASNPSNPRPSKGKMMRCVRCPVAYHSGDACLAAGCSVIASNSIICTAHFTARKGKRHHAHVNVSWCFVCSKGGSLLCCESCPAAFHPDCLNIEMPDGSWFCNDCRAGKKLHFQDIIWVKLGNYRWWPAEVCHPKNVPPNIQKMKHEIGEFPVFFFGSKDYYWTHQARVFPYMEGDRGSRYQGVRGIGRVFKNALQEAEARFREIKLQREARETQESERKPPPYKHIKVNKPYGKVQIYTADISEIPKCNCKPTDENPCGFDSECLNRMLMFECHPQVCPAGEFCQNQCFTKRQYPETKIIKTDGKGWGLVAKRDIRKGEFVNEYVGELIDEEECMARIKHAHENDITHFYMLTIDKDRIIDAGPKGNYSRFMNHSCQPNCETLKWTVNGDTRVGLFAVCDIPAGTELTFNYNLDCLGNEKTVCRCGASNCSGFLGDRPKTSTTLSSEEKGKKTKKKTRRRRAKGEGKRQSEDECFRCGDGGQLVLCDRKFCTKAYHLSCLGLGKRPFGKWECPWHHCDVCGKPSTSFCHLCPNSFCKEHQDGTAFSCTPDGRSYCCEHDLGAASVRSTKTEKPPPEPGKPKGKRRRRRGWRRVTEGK
It is filed as biochemical.

Assay [9] has as its target T3, Mannose-6-phosphate isomerase (Homo sapiens, UniProt P34949).
T3 sequence (P34949 whole entry): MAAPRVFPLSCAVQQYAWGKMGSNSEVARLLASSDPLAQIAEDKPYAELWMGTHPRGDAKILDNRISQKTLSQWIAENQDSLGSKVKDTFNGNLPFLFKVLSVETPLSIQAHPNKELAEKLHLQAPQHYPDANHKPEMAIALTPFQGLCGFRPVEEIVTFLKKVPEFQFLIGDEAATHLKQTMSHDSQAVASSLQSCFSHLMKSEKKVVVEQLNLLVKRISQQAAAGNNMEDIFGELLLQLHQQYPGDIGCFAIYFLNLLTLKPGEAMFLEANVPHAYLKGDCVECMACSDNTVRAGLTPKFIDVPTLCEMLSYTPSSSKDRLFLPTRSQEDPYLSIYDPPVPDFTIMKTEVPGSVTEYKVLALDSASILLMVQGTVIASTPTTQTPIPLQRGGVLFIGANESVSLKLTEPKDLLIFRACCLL
The experiment in a line: human PMI inhibitors, high substrate, primary screen, biochemical, fluorescence intensity, high mannose 6-phosphate (AID 1220).

Assay [10] addresses T4, Replicative DNA helicase DnaB (Mycobacterium tuberculosis, UniProt P9WMR3).
T4 sequence (P9WMR3 whole entry): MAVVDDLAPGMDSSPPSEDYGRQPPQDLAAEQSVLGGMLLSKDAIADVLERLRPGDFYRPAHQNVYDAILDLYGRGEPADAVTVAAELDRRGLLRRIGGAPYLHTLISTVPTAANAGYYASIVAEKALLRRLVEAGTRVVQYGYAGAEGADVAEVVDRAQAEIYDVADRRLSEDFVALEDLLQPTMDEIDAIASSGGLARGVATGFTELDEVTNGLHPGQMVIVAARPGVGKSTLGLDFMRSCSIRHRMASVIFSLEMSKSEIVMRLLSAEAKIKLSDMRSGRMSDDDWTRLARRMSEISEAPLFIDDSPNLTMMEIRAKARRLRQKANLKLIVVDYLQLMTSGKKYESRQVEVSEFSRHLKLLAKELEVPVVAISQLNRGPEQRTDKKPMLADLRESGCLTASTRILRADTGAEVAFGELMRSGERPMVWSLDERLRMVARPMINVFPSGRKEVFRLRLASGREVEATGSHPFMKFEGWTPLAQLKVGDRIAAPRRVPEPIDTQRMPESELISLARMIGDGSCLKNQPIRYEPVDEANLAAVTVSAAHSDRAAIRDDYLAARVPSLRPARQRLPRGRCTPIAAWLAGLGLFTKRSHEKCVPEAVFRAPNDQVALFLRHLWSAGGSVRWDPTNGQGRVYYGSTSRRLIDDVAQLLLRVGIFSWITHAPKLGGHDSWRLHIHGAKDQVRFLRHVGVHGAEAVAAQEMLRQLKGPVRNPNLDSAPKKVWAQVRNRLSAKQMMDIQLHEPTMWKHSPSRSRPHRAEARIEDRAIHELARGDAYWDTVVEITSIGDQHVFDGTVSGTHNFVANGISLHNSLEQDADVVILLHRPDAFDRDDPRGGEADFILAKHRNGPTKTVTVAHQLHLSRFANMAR
The experiment in a line: DnaB intein splicing inhibitors, dose response, biochemical, cell-free fluorescence (AID 449749). The format is functional.

Assay [11] has as its target T5, Protein RecA (Mycobacterium tuberculosis, UniProt P9WHJ3).
T5 sequence (P9WHJ3 whole entry): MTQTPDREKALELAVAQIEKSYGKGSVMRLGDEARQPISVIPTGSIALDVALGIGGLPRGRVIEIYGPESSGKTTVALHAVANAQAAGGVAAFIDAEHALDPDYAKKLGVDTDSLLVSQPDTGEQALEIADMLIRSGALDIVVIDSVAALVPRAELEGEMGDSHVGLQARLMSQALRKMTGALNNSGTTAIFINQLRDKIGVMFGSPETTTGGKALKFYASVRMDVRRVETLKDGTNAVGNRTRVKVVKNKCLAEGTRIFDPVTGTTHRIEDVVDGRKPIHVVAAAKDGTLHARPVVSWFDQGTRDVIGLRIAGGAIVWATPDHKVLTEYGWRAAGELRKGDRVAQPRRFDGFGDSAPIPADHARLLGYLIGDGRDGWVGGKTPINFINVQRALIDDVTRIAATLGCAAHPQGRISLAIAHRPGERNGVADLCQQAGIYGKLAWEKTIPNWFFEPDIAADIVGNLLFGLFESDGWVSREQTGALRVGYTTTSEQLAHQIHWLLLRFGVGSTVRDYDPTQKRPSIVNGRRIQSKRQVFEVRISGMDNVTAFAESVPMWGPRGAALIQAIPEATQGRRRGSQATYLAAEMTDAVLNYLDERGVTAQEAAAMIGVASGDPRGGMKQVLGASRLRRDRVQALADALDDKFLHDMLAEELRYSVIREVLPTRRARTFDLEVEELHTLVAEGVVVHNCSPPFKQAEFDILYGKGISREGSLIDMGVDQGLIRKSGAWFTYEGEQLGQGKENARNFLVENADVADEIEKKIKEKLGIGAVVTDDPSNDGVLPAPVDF
Put plainly: Fluorescence Cell-Free Homogeneous Dose Retest to Identify Inhibitors of RecA-Intein Splicing Activity. [Related pubchem assays (depositor defined):AID2097, AID2223, AID489010, AID492950]. The format is functional.

The nature of assay [12]: cytotoxicity in HEK-293T cells, dose response, cytotoxicity control for BCR NF-kB inhibitor project, luminescence, B-cell screen hits (AID 489021).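 Further: HEK-293T cells carrying an NF-kB luciferase reporter; cells exposed to compound for about 14 hours before viability readout.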 The format is functional, cell-based.
Assay [13] is described as follows: cells.
Assay [14] can be described thus: inhibitors of intracellular T. cruzi replication, confirmation, NIH3T3 host cells, beta-gal luminescence (AID 2044).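 Further: intracellular parasites grown in NIH/3T3 mouse fibroblasts as host cells; luminescent beta-galactosidase reporter signal from transgenic T. cruzi replicating inside host cells; inhibitors lower the luminescence signal.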 The format is functional, cell-based.
The nature of assay [15]: cytotoxicity toward NIH3T3 fibroblasts, dose response, counter-screen, cell-based, ATP luminescence, mouse fibroblasts (AID 2010).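 Further: cells exposed to compound for about 90 hours before reading.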 It is filed as functional.
Assay [16] deals with Glyceraldehyde-3-phosphate dehydrogenase (Homo sapiens, UniProt P04406).
Glyceraldehyde-3-phosphate dehydrogenase, sequence (P04406 whole entry): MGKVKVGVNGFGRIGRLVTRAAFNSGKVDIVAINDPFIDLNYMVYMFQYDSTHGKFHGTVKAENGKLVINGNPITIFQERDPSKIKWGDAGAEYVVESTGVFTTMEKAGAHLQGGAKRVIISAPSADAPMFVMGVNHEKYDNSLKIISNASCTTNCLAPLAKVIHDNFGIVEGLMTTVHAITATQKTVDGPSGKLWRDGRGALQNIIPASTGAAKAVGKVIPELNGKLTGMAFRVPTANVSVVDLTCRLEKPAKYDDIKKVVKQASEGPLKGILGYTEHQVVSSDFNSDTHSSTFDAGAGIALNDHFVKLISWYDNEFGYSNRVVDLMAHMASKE
Assay [17] concerns the target Estrogen receptor beta (Homo sapiens, UniProt Q92731). Put plainly: ERβ–SRC-3 coactivator interaction inhibitors, confirmation, orthogonal assay, biochemical, ELISA, streptavidin-HRP readout (AID 1060).

The structures appear in SMILES notation. Calls of active or inactive are those of the source. For most assays here, no stated cut-off is given here; in the data, actives have a measured EC50 and inactives only a lower limit.

Consider ten compounds from ChEMBL document CHEMBL1201862, “PubChem BioAssay data set” (2004).

The term EC50 denotes the concentration needed to bring the measured effect to its halfway point. The AC50 is the concentration giving half of the maximal activity seen. Broadly, the IC50 is the concentration that gives 50% inhibition.

Estrogen receptor beta, sequence (Q92731 whole entry): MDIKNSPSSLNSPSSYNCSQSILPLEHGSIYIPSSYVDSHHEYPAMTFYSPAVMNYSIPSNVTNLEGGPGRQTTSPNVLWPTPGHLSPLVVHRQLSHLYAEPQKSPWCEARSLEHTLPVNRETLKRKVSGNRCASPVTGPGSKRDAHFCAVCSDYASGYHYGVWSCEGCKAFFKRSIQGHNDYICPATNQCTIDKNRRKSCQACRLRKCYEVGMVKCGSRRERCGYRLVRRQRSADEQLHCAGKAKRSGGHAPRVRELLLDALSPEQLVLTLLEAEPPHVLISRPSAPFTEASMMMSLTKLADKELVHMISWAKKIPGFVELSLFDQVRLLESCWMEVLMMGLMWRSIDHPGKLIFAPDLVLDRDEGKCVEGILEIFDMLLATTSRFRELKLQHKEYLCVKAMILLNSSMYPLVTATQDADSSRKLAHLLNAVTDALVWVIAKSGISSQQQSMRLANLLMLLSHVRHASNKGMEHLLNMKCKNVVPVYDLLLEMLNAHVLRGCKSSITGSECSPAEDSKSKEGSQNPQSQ
Luciferin 4-monooxygenase, sequence (P08659 whole entry): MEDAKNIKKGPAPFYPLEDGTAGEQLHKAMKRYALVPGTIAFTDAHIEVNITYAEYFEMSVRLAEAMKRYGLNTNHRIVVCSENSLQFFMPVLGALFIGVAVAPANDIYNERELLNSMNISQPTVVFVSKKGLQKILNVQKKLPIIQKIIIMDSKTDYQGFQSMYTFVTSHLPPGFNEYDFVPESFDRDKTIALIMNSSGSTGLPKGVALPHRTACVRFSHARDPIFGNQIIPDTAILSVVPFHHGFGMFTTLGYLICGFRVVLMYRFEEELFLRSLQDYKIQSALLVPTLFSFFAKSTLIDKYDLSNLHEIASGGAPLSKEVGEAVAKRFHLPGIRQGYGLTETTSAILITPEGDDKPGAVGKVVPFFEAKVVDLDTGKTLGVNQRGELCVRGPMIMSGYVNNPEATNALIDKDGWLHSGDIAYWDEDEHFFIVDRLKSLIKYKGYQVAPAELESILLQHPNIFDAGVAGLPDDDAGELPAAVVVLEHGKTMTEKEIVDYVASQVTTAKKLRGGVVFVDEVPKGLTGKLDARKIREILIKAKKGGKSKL

In the case of `Cc1cc(-c2csc(N)n2)c(C)n1CCC(C)C`, the concentration for a half-maximal effect (EC50) in [1] was > 50 µM (not active); in [2] it was 16 µM (active).
As to `Cc1ccc(C(=O)CSc2nnnn2C(C)C)c(C)c1`, the concentration for a half-maximal effect (EC50) in [3] is 9.17 µM (active); in [4], > 260 µM (inactive); in assay [5] it was 3.7 µM (active); in assay [6] it was 14.7 µM (active); in assay [1], > 50 µM (not active); in assay [2], 8.28 µM (active). Moreover, the AC50 in [7] is 2.92 µM (active).
With `CC1=Nc2cccc3cccc(c23)N1C`, the AC50 in assay [8] was 1.25 µM (active); in assay [10] it was > 380 µM (inactive). In addition, in [9], the half-inhibitory concentration (IC50) was > 50 µM (not active). The EC50 in assay [11] was > 380 µM (inactive).
For `CCN(CC)c1ccc(N/C=C2\C(=O)NC(=O)N(CCc3ccc(OC)c(OC)c3)C2=O)cc1`, the IC50 in [9] is > 50 µM (not active).
On to `COc1ccc(-c2noc(CCCC(=O)Nc3ccc(C(N)=O)cc3)n2)cc1`, for which the IC50 in assay [12] was > 80 µM (inactive).
As for `CSCCC(=O)N(C)CC1CCCN(CCc2cccc(C(F)(F)F)c2)C1` (centres undefined), the values for the EC50 in assay [13], in [14] and in assay [15] were 329 nM (active), < 100 nM (active) and > 60 µM (not active), respectively.
For `O=C1C(Cl)=C(N2CCN(Cc3ccccc3)CC2)C(=O)N1c1ccnc(Cl)c1`, the 50% inhibitory concentration (IC50) in assay [16] was > 50 µM (inconclusive).
Consider `COCc1cc(CN2CCCC(C(=O)Nc3cccc(-n4cnnn4)c3)C2)ccc1OC` (centres undefined), for which the 50% effective concentration (EC50) in [13] is 61 nM (active); in assay [14], < 100 nM (active); in assay [15] it was > 60 µM (not active).
As for `CC(=N)/C(C#N)=C(/O)CSc1nnnn1-c1ccccc1`, the IC50 in assay [17] was > 50 µM (not active).
`CCc1ccc(NC(=O)CSc2nc(C)cc(O)n2)cc1`: the IC50 in assay [17] was 48.8 µM (not active).
